Here are results for one molecule from PMC9449960, “Pamoic acid is an inhibitor of HMGB1·CXCL12 elicited chemotaxis and reduces inflammation in murine models of Pseudomonas aeruginosa pneumonia” (Molecular Medicine, 2022).

One assay concerns the target T1, CXCL12 (Homo sapiens, UniProt P48061).
T1 construct: recombinant human CXCL12
In words: NMR titration of […]-CXCL12 (chemical shift perturbation). It is filed as binding.

The target in another assay is T2, HMGB1 (Mus musculus, UniProt P63158).
T2 construct: residues 1–215
T2 sequence (P63158 1-215): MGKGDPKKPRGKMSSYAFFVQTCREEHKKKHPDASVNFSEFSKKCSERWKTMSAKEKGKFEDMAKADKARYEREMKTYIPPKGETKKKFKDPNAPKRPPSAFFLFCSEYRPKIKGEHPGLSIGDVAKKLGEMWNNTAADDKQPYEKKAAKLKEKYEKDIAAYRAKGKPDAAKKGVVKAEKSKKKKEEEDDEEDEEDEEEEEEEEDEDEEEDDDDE
In words: NMR 1H-15N HSQC titration with lineshape analysis; STD, waterLOGSY, NOEs. It is filed as binding.

T1 sequence (P48061 22-93): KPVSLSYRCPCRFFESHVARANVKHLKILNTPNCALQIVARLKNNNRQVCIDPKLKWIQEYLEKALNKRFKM

As to `O=C(O)c1cc2ccccc2c(Cc2c(O)c(C(=O)O)cc3ccccc23)c1O` [PAM, pamoic acid], the values for the Kd at CXCL12 and on HMGB1 were 66 ± 4 µM and 170 ± 17 µM, respectively.
